Values quoted from earlier work as cited in PubChem BioAssay AID1259409 (Chemical Carcinogenesis Research Information System (CCRIS), 2018).

System: rodent chemically induced tumor inhibition, incidence and multiplicity
Test: CCRIS tumor inhibitor studies

Oc1ccccc1O
tumour outcome (control, treated, inhibition, significance) (Carcinogen: 3,2'-DIMETHYL-4-AMINOBIPHENYL, 13394-86-0, Dose [Inhibitor]: 0, 0.8% IN BASAL DIET BEGINNING POST CARCINOGEN TREATMENT AND CONTINUING FOR 40 (STUDY DURATION: 60 WK), Route [Inhibitor]: ORAL, Species: RAT, Strain/Sex: F344/MALE, Target Tissue: Type of Lesion: SUBCUTIS: TUMOR, Dose [Carcinogen]: 50 MG/KG 1/2 WK FOR 20 WK TO RATS MAINTAINED ON ETHINYL ESTRADIOL CONTAINING DIET (0.75 PPM) FOR 1 WK CYCLED WITH ETHINY, Promoter: ETHINYL ESTRADIOL, 57-63-6): 1/10 (10%), 1/11 (9%), 10%, not significant | tumour outcome (control, treated, inhibition, significance) (Carcinogen: 3,2'-DIMETHYL-4-AMINOBIPHENYL, 13394-86-0, Dose [Inhibitor]: 0, 0.8% IN BASAL DIET BEGINNING POST CARCINOGEN TREATMENT AND CONTINUING FOR 40 WK (STUDY DURATION: 60 WK), Route [Inhibitor]: ORAL, Species: RAT, Strain/Sex: F344/MALE, Target Tissue: Type of Lesion: LARGE INTESTINE: ADENOMA AND ADENOCARCINOMA, Dose [Carcinogen]: 50 MG/KG 1/2 WK FOR 20 WK TO RATS MAINTAINED ON ETHINYL ESTRADIOL CONTAINING DIET (0.75 PPM) FOR 1 WK CYCLED WITH ETHINY, Promoter: ETHINYL ESTRADIOL, 57-63-6): 3/10 (30%), 5/11 (45%), -50%, not significant | tumour outcome (control, treated, inhibition, significance) (Carcinogen: 3,2'-DIMETHYL-4-AMINOBIPHENYL, 13394-86-0, Dose [Inhibitor]: 0, 0.8% IN BASAL DIET BEGINNING POST CARCINOGEN TREATMENT AND CONTINUING FOR 40 WK (STUDY DURATION: 60 WK), Route [Inhibitor]: ORAL, Species: RAT, Strain/Sex: F344/MALE, Target Tissue: Type of Lesion: PANCREAS: ACINAR CELL NODULE, Dose [Carcinogen]: 50 MG/KG 1/2 WK FOR 20 WK TO RATS MAINTAINED ON ETHINYL ESTRADIOL CONTAINING DIET (0.75 PPM) FOR 1 WK CYCLED WITH ETHINY, Promoter: ETHINYL ESTRADIOL, 57-63-6): 4/10 (40%), 4/11 (36%), 10%, not significant | tumour outcome (control, treated, inhibition, significance) (Carcinogen: 3,2'-DIMETHYL-4-AMINOBIPHENYL, 13394-86-0, Dose [Inhibitor]: 0, 0.8% IN BASAL DIET BEGINNING POST CARCINOGEN TREATMENT AND CONTINUING FOR 40 WK (STUDY DURATION: 60 WK), Route [Inhibitor]: ORAL, Species: RAT, Strain/Sex: F344/MALE, Target Tissue: Type of Lesion: PREPUTIAL GLAND: ADENOMA AND CARCINOMA, Dose [Carcinogen]: 50 MG/KG 1/2 WK FOR 20 WK TO RATS MAINTAINED ON ETHINYL ESTRADIOL CONTAINING DIET (0.75 PPM) FOR 1 WK CYCLED WITH ETHINY, Promoter: ETHINYL ESTRADIOL, 57-63-6): 5/10 (50%), 4/11 (36%), 28%, not significant | tumour outcome (control, treated, inhibition, significance) (Carcinogen: 3,2'-DIMETHYL-4-AMINOBIPHENYL, 13394-86-0, Dose [Inhibitor]: 0, 0.8% IN BASAL DIET BEGINNING POST CARCINOGEN TREATMENT AND CONTINUING FOR 40 WK (STUDY DURATION: 60 WK), Route [Inhibitor]: ORAL, Species: RAT, Strain/Sex: F344/MALE, Target Tissue: Type of Lesion: PROSTATE: CARCINOMA, Dose [Carcinogen]: 50 MG/KG 1/2 WK FOR 20 WK TO RATS MAINTAINED ON ETHINYL ESTRADIOL CONTAINING DIET (0.75 PPM) FOR 1 WK CYCLED WITH ETHINY, Promoter: ETHINYL ESTRADOL, 57-63-6): 5/10 (50%), 3/11 (27%), 46%, not significant | tumour outcome (control, treated, inhibition, significance) (Carcinogen: 3,2'-DIMETHYL-4-AMINOBIPHENYL, 13394-86-0, Dose [Inhibitor]: 0, 0.8% IN BASAL DIET BEGINNING POST CARCINOGEN TREATMENT AND CONTINUING FOR 40 WK (STUDY DURATION: 60 WK), Route [Inhibitor]: ORAL, Species: RAT, Strain/Sex: F344/MALE, Target Tissue: Type of Lesion: SMALL INTESTINE: ADENOMA AND ADENOCARCINOMA, Dose [Carcinogen]: 50 MG/KG 1/2 WK FOR 20 WK TO RATS MAINTAINED ON ETHINYL ESTRADIOL CONTAINING DIET (0.75 PPM) FOR 1 WK CYCLED WITH ETHINY, Promoter: ETHINYL ESTRADIOL, 57-63-6): 2/10 (20%), 1/11 (9%), 55%, not significant | tumour outcome (control, treated, inhibition, significance) (Carcinogen: 3,2-DIMETHYL-4-AMINOBIPHENYL, 13394-86-0, Dose [Inhibitor]: 0, 0.8% IN BASAL DIET BEGINNING POST CARCINOGEN TREATMENT AND CONTINUING FOR 40 WK (STUDY DURATION: 60 WK), Route [Inhibitor]: ORAL, Species: RAT, Strain/Sex: F344/MALE, Target Tissue: Type of Lesion: ZYMBAL GLAND: ADENOMA AND CARCINOMA, Dose [Carcinogen]: 50 MG/KG 1/2 WK FOR 20 WK TO RATS MAINTAINED ON ETHINYL ESTRADIOL CONTAINING DIET (0.75 PPM) FOR 1 WK CYCLED WITH ETHINY, Promoter: ETHINYL ESTRADIOL, 57-63-6): 2/10 (20%), 0/11 (0%), 100%, not significant | tumour outcome (control, treated, inhibition, significance) (Carcinogen: 7,12-DIMETHYLBENZ[A]ANTHRACENE, 57-97-6, Dose [Inhibitor]: 0, 0.4% IN DIET FOR 35 WK BEGINNING POST CARCINOGEN DOSE (STUDY DURATION: 36 WK), Route [Inhibitor]: ORAL, Species: RAT, Strain/Sex: SPRAGUE-DAWLEY/FEMALE, Target Tissue: Type of Lesion: EAR DUCT: TUMOR, Dose [Carcinogen]: 50 MG/KG BW IN CORN OIL ONCE, Promoter: NONE USED): 5/15 (33%), 2/15 (13%), 61%, not significant | tumour outcome (control, treated, inhibition, significance) (Carcinogen: 7,12-DIMETHYLBENZ[A]ANTHRACENE, 57-97-6, Dose [Inhibitor]: 0, 0.4% IN DIET FOR 35 WK BEGINNING POST CARCINOGEN DOSE (STUDY DURATION: 36 WK), Route [Inhibitor]: ORAL, Species: RAT, Strain/Sex: SPRAGUE-DAWLEY/FEMALE, Target Tissue: Type of Lesion: MAMMARY GLAND: ADENOCARCINOMA, Dose [Carcinogen]: 50 MG/KG BW IN CORN OIL ONCE, Promoter: NONE USED): 14/15 (93%), 15/15 (100%), -8%, not significant | tumour outcome (control, treated, inhibition, significance) (Carcinogen: 7,12-DIMETHYLBENZ[A]ANTHRACENE, 57-97-6, Dose [Inhibitor]: 0, 0.4% IN DIET FOR 35 WK BEGINNING POST CARCINOGEN DOSE (STUDY DURATION: 36 WK), Route [Inhibitor]: ORAL, Species: RAT, Strain/Sex: SPRAGUE-DAWLEY/FEMALE, Target Tissue: Type of Lesion: MAMMARY GLAND: FIBROADENOMA, Dose [Carcinogen]: 50 MG/KG BW IN CORN OIL ONCE, Promoter: NONE USED): 3/15 (20%), 0/15 (0%), 100%, not significant | tumour outcome (control, treated, inhibition, significance) (Carcinogen: 7,12-DIMETHYLBENZ[A]ANTHRACENE, 57-97-6, Dose [Inhibitor]: 0, 12 MG 2/WK FOR 30 WK APPLIED 20 MIN PRIOR TO EACH PROMOTER DOSE (STUDY DURATION: 32 WK), Route [Inhibitor]: DERMAL, Species: MOUSE, Strain/Sex: SENCAR/FEMALE, Target Tissue: Type of Lesion: SKIN: PAPILLOMA, Dose [Carcinogen]: 25 NMOL ONCE, Promoter: M-CHLOROPEROXYBENZOIC ACID, 937-14-4): 39%, 0%, 100%, not calculated | tumour outcome (control, treated, inhibition, significance) (Carcinogen: BENZO[A]PYRENE, 50-32-8, Dose [Inhibitor]: 2 MG IN 0.1 ML ACETONE 3/WK ADMINISTERED SIMULTANEOUSLY WITH CARCINOGEN FOR DURATION OF STUDY (STUDY DURATION: 368 D), Route [Inhibitor]: DERMAL, Species: MOUSE, Strain/Sex: ICR/FEMALE, Target Tissue: Type of Lesion: SKIN: PAPILLOMA, Dose [Carcinogen]: 5 UG IN 0.1 ML ACETONE 3/WK FOR DURATION OF STUDY, Promoter: NONE USED): 14/50 (28%), 36/50 (72%), -157%, not calculated | tumour outcome (control, treated, inhibition, significance) (Carcinogen: BENZO[A]PYRENE, 50-32-8, Dose [Inhibitor]: 2 MG IN 0.1 ML ACETONE 3/WK ADMINISTERED SIMULTANEOUSLY WITH CARCINOGEN FOR DURATION OF STUDY (STUDY DURATION: 368 D), Route [Inhibitor]: DERMAL, Species: MOUSE, Strain/Sex: ICR/FEMALE, Target Tissue: Type of Lesion: SKIN: SQUAMOUS CARCINOMA, Dose [Carcinogen]: 5 UG IN 0.1 ML ACETONE 3/WK FOR DURATION OF STUDY, Promoter: NONE USED): 10/50 (20%), 31/50 (62%), -210%, not calculated | tumour outcome (control, treated, inhibition, significance) (Carcinogen: N-BIS(2-HYDROXYPROPYL)NITROSAMINE, 53609-64-6, Dose [Inhibitor]: 0, 0.8% IN DIET FOR 30 WK BEGINNING POST CARCINOGEN TREATMENT (STUDY DURATION: 32 WK), Route [Inhibitor]: ORAL, Species: RAT, Strain/Sex: F344/MALE, Target Tissue: Type of Lesion: BLADDER: ADENOMA, Dose [Carcinogen]: 0.1% IN DRINKING WATER FOR 2 WK, Promoter: NONE USED): 5%, 0%, 100%, not calculated
